“Also recorded” adds a separate entry of the source. Where two headings read alike, the source gives them in different places.
Legend:
[1] = biological target: purified L. tarentolae tubulin (Leishmania tarentolae, UniProt A0A640KCM0+A0A640KQN0); experiment: Chemical cross-linking competition with SW223022 probe; assay type: binding; conditions: 100-fold excess of competitor
[2] = system: L. amazonensis axenic amastigotes; experiment: alamarBlue viability / concentration-response assay, axenic amastigotes; assay type: cell-based, Leishmania amazonensis
Method: (§1) Leishmania amazonensis axenic amastigotes (100 μL, 2×10^6 cells/mL) were added to 96-multiwell plates containing 100 μL of amastigote culture medium with an appropriate compound dilution series. 0.1% DMSO (no drug) served as a positive control (100%), and 5 μM amphotericin B served as a negative growth control (0%). Only internal wells were used to minimize edge effects from evaporation. Axenic amastigotes were incubated at 32° C. with a compound/drug for 72 h prior to measurement. Similarly, the cytotoxicity of each compound was determined against RAW 264.7 cells and HepG2 cell lines, following 72 h incubation at 37° C. (promastigotes at 26° C.).
(§2) 10% alamarBlue® (Thermo Fisher Scientific) was used to measure the growth of both parasite and mammalian cells. Conversion from a blue oxidized state to a pink reduced state was assessed visually at 6 hr. The fluorescence signal was measured with a BioTek Synergy H1 plate reader (530 nm excitation, 570 nm emission). For bioluminescence assays using L. amazonensisluc, relative luminescence units (RLU) were measured using Britelite Plus (PerkinElmer, USA). Luminescence produced by this luciferase reaction is proportional to the amount of luciferase-expressing, viable L. amazonensisluc. Following five-minute incubation at room temperature, the luminescence was measured with a BioTek Synergy H1 plate reader.
All experiments were conducted as three technical triplicates on the same plate, with at least three independent biological repeats of each plate performed. For all assays, percent growth was expressed as a proportion of the untreated (positive) control (i.e. 100%) and plotted against drug/compound concentration. The concentration was then log10 transformed and EC50 values were determined using nonlinear regression (sigmoidal dose-response/variable slope equation) in GraphPad Prism v5.0 (GraphPad Software, Inc., San Diego, CA).
To identify antileishmanial compounds, a microplate-based alamarBlue® assay was used to quickly triage the 400 drug-like compounds available in the MMV Pathogen Box collection. […] A three-step process was used to screen the Pathogen Box: 1) identify hits against axenic amastigotes, 2) confirm the inhibitory concentrations of these hits against axenic amastigotes, 3) evaluate hits for potency against intracellular parasites using fluorescence and bioluminescence-based intracellular assays. The MMV Pathogen Box resource was tested at two concentrations (5 μM and 1 μM, 72 h endpoint) on axenic amastigotes.
Hits were defined as compounds that, at a concentration of 1 μM, decreased the relative fluorescence intensity signal to ≤70% of that produced by parasites incubated in vehicle (0.06% DMSO) only (FIG. 9).

[3] = system: intracellular L. amazonensis amastigotes; experiment: Intramacrophage bioluminescence assay with luciferase-expressing L. amazonensis; assay type: cell-based, Leishmania amazonensis
Method: Intracellular EC50s were estimated with L. amazonensisluc parasites. Briefly, RAW 264.7 cells or BM primary Mϕs were starved overnight, then infected with metacyclic promastigotes at a Multiplicity of Infection (MOI) of 15 and incubated for another 24 h at 37° C. The plates containing infected RAW 264.7 cells/BM primary M4s were washed five times with serum-free DMEM. Serially diluted compounds were added, and plates were incubated at 37° C. for 72 hrs. Bioluminescence signal was measured as described above.
RAW 264.7 cells were used to perform a bioluminescence assay with transgenic luciferase-expressing L. amazonensis (FIG. 1C).

Cytotoxicity, alamarBlue = assay type: cell-based; conditions: mouse, RAW 264.7 macrophage cells, read-out: CC50^72 h cytotoxicity (macrophage / mammalian cells)
Method: as §1
as §2, with “reader. […]” for “reader.”

[4] = system: blood-stage P. falciparum (3D7 strain); experiment: Malaria SYBR green I fluorescence (MSF) assay; assay type: cell-based, Plasmodium falciparum; conditions: 3D7 strain
Method: For other parasites, L. donovani, strain MHOM/SD/62/1S-C12D, was grown as previously described. Plasmodium falciparum parasites of the 3D7 strain were cultured in RPMI 1640 medium supplemented with 37.5 mM HEPES, 10 mM D-glucose, 2 mM L-glutamine, 100 μM hypoxanthine, 25 μg/mL gentamicin, 4% (v/v) human serum and 0.25% (v/v) Albumax II, at a 2% haematocrit in an atmosphere of 1% 02, 3% CO2 and 96% N2. Staging and parasitemia of the in vitro culture were assessed by light microscopy of Giemsa-stained thin blood smears.
Compounds were tested against the blood-stage Trypanosoma brucei (48 hr endpoint) and intra-erythrocytic asexual stages Plasmodium falciparum (3D7) using CellTiter-Glo® luminescent and Malaria SYBR green I fluorescence (MSF) assays, respectively. Similar methodology will be used for future experiments.
MMV676477 was tested against several other parasites: the axenic amastigotes of Leishmania donovani and Leishmania tarentolae, blood-stage Plasmodium falciparum, and Trypanosoma brucei. The compound's activity was measured using alamarBlue®, Malaria SYBR green I fluorescence (MSF) and CellTiter-Glo® luminescent assays. […] In addition, MMV676477 has also been recently reported as having potent activity against Neospora caninum, Cryptosporidium parvum, Toxoplasma gondii, and Entamoeba histolytica.

[5] = system: L. amazonensis promastigotes and amastigotes; experiment: Microscopic analysis of cell division; assay type: cell-based, Leishmania amazonensis; conditions: 48 h at EC50^72 h
Method: (§3) Promastigotes or amastigotes were treated with the indicated compound concentrations and allowed to adhere to poly-L-lysine coated plates. All cells were fixed with 4% paraformaldehyde and permeabilized/blocked with 0.01% Triton X-100 and 2% BSA in PBS. Promastigotes and amastigotes were incubated with mouse anti-gp46 or anti-p8, respectively at 1:50 or 1:1000 and rat anti-alpha-tubulin antibody at 1:1000. Samples were then probed with A568 anti-mouse and […] secondary antibodies (Molecular Probes). DNA was labeled with Hoescht. Samples were visualized on a Zeiss LSM 880 Inverted confocal Airyscan microscope at 63×; full Z-thicknesses through parasites were obtained. […] For microscopic analysis of mitotic arrest, at least 200 parasites were analyzed per condition per experiment after 48 hrs incubation at compounds' EC50, and the average plus standard error for three experiments was calculated. Representative images were selected from the maximal intensity projections and linearly processed in Adobe Photoshop CS6.
The molecular target of MMV676477 was investigated.

[6] = system: L. amazonensis promastigotes and amastigotes; experiment: Tubulin intensity by confocal immunofluorescence microscopy; assay type: cell-based, Leishmania amazonensis; conditions: 24 h at EC50^72 h
Method: as §3
One reason why MMV676477 might affect parasite cell division is that, like paclitaxel, it might affect microtubule polymerization, either directly or indirectly. The degree to which MMV676477 affected microtubules polymerization in cells was examined. […] Centrifugation of these extracts allowed separation of insoluble polymeric (pellet) and soluble dimeric (supernatant) tubulin. […] The intensity of α-tubulin staining was examined by normalizing it to the intensity of a membrane protein (gp46 for promastigotes in FIG. 4D; p8 for amastigotes in FIG. 4E).

[7] = system: intracellular L. amazonensis amastigotes; experiment: Intracellular washout assay (LD50); assay type: cell-based, Leishmania amazonensis
Method: Intracellular LD50s were measured. Briefly, RAW 264.7 cells were seeded to 96-multiwell plates at a density of 2×10^5 cells/mL (200 μL) and starved overnight at 37° C. The cells were infected with metacyclic promastigotes at a Multiplicity of Infection (MOI) of 15 and incubated for another 24 h at 37° C. The plates containing infected RAW 264.7 cells/BM primary M #s were washed five times with serum-free DMEM. Serially diluted compounds were added, and plates were incubated at 37° C. for 72 hrs. Wells were washed five times with DMEM, and the RAW 264.7 cells were lysed with 100 μL of 2 mg/mL saponin in DMEM for 5 min at room temperature, and further lysis was stopped with 100% FBS. After centrifugation, 200 μL acidic promastigotes media was replaced, plates were incubated at 26° C. for 96 h. Fluorescence intensity (alamarBlue®) was measured as described above.
All routine in vitro quantification of antileishmanial drug potency is quantification of “cytostatic” potency. […] Therefore, the cytocidal action of MMV676477 was quantified by obtaining an LD50 at 72 h (a Lethal Dose that kills 50% of the bulk population of the parasites relative to untreated control) and compared it to the known cytocidal drug amphotericin. An intracellular washout assay was employed. […] The ratio of LD50:EC50 was calculated for MMV676477 and amphotericin. Lower ratios indicate that the LD50 is similar to the EC50 value, meaning that the estimated EC50 values represent killing of the parasites rather than simple growth inhibition.

[8] = Leishmania amazonensis, 72 h, axenic amastigotes; read-out: EC50^72 h against L. amazonensis axenic amastigotes
[9] = Pathogen Box screen, 1 μM, 72 h

## CSc1ccccc1C(=O)Oc1cc(C)nc(-n2nc(C)cc2N)n1 [SW10]
[1]
  competition with SW223022 probe (fluorescent tubulin band): No apparent competition

## C#CCOc1ccc(C(=O)c2ccc(C(=O)Nc3cc(C)nn3-c3nc(C)c(CC)c(=O)[nH]3)cc2)cc1 [SW223022, N-(1-(5-Ethyl-4-methyl-6-oxo-1,6-dihydropyrimidin-2-yl)-3-methyl-1H-pyrazol-5-yl)-4-(4-(prop-2-yn-1-yloxy)benzoyl)benzamide]
[2]; 72 h, axenic amastigotes; read-out: EC50^72 h against L. amazonensis axenic amastigotes
  EC50: 156 nM
[2]; [8]
  EC50: 160 nM

## CCc1c(C)nc(-n2nc(C)cc2NC(C)=O)[nH]c1=O [SW223023, N-(1-(5-Ethyl-4-methyl-6-oxo-1,6-dihydropyrimidin-2-yl)-3-methyl-1H-pyrazol-5-yl) acetamide]
[1]
  competition with SW223022 probe (fluorescent tubulin band): No apparent competition

## CCc1c(C)nc(-n2nc(C)cc2NC(=O)c2ccc(F)c(Cl)c2)[nH]c1=O [SW223041, 3-Chloro-N-(1-(5-ethyl-4-methyl-6-oxo-1,6-dihydropyrimidin-2-yl)-3-methyl-1H-pyrazol-5-yl)-4-fluorobenzamide]
[3]
  potency against L. amazonensis intracellular amastigotes relative to MMV676477: 3-4 fold
[2]; [8]
  EC50: 20 nM
[2]; fold vs MMV676477
  improvement of potency against L. amazonensis compared to MMV676477: four to five-fold improved potency; also recorded: about four-fold improved activity
Cytotoxicity, alamarBlue
  CC50 at 72 h: 2400 nM
[1]
  competition with SW223022 probe (fluorescent tubulin band): almost completely absent
[4]
  potency against blood-stage P. falciparum relative to MMV676477: 3-4 fold

## CCc1c(C)nc(-n2nc(C)cc2N)[nH]c1=O [SW223075, 2-(5-amino-3-methyl-1H-pyrazol-1-yl)-5-ethyl-6-methylpyrimidin-4(3H)-one]
[5]
  percentage of L. amazonensis undergoing cell division: no effect on cell division
[6]
  tubulin intensity over control (DMSO-treated): did not increase tubulin intensity
[2]; [8]
  EC50: 290 nM

## CCc1c(C)nc(-n2nc(C)cc2NC(=O)Nc2ccc(OC)cc2)[nH]c1=O [SW223102, 1-(1-(5-Ethyl-4-methyl-6-oxo-1,6-dihydropyrimidin-2-yl)-3-methyl-1H-pyrazol-5-yl)-3-(4-methoxyphenyl)urea]
[2]; [8]
  EC50: 2400 nM
[1]
  competition with SW223022 probe (fluorescent tubulin band): less-pronounced dimming

## C[C@@H]1[C@H](O)[C@@H](C)/C=C/C=C/C=C/C=C/C=C/C=C/C=C/[C@H](O[C@@H]2O[C@H](C)[C@@H](O)[C@H](N)[C@@H]2O)C[C@@H]2O[C@](O)(C[C@@H](O)C[C@@H](O)[C@H](O)CC[C@@H](O)C[C@@H](O)CC(=O)O[C@H]1C)C[C@H](O)[C@H]2C(=O)O [amphotericin B]
[3]; Leishmania amazonensis, RAW264.7, 72 h, read-out: EC50^72 h against intracellular L. amazonensis amastigotes
  EC50: 77 nM
[2]; Leishmania amazonensis; 72 h, axenic amastigotes; read-out: EC50^72 h against L. amazonensis axenic amastigotes
  EC50: 53 nM
[7]; intracellular amastigotes
  LD50/EC50 ratio: 1
[7]; intracellular washout, 72 h
  LD50 72 h: 82 nM

## CC(=O)OC[C@H]1O[C@@H]([S-])[C@H](OC(C)=O)[C@@H](OC(C)=O)[C@@H]1OC(C)=O.CCP(CC)CC.[Au+] [auranofin]
[2]; [9]
  relative fluorescence intensity signal vs vehicle (hit definition): hits

## CC(C)(C)[C@H]1CC[C@H](CC2=C(O)C(=O)c3ccccc3C2=O)CC1 [buparvaquone]
[2]; [9]
  relative fluorescence intensity signal vs vehicle (hit definition): hits

## C[C@]1(COc2ccc(N3CCC(Oc4ccc(OC(F)(F)F)cc4)CC3)cc2)Cn2cc([N+](=O)[O-])nc2O1 [delamanid]
[2]; [9]
  relative fluorescence intensity signal vs vehicle (hit definition): hits

## CCCCCCCCCCCCCCCCOP(=O)([O-])OCC[N+](C)(C)C [miltefosine]
[5]
  percentage of L. amazonensis undergoing cell division: did not affect L. amazonensis cell division
[6]
  tubulin intensity over control (DMSO-treated): did not increase tubulin intensity

## CC(=O)Oc1ccccc1C(=O)Nc1ncc([N+](=O)[O-])s1 [nitazoxanide]
[2]; [9]
  relative fluorescence intensity signal vs vehicle (hit definition): hits

Source: patent US20240139190A1, “NOVEL ANTIPARASITIC COMPOUNDS AND METHODS” (The Board of Regents of The University of Texas System, priority 2019, published 2024)
